Measured values: ChEMBL document CHEMBL3808383, “Synthesis and antitubercular evaluation of novel dibenzo[b,d]thiophene tethered imidazo[1,2-a]pyridine-3-carboxamides” (Bioorg Med Chem Lett, 2016)
Values after ≈ are worked out from the molar mass of the structure shown.

Experiments:
[1] = test system: Mycobacterium tuberculosis; test: Antimycobacterial activity against Mycobacterium tuberculosis H37Rv ATCC 27294 after 28 days by agar dilution method; format: functional; details: H37Rv ATCC 27294, 672 h
[2] = Cytotoxicity against HEK293T cells assessed as cell growth inhibition at 50 ug/mL after 72 hrs by MTT assay; format: cell-based, HEK-293T; details: human, read-out: GI

Structure (SMILES)	MIC50 [1]	MIC ([1]; read-out: MIC)	MIC ([1]; read-out: MIC100)	inhibition at 72 h, 50 ug/mL [2]
COc1ccc(CCNC(=O)c2c(C)nc3ccccn23)cc1	2.63 µM (≈ 0.814 µg/mL)			
Cc1nc2ccccn2c1C(=O)NCc1ccccc1	1.86 µM (≈ 0.493 µg/mL)			
O=C(NCc1ccc(N2CCSCC2)cc1)c1c(-c2ccc3sc4ccccc4c3c2)nc2ccccn12		25 µg/mL		
O=C(NCc1ccc(N2CCN(Cc3ccccc3)CC2)cc1)c1c(-c2ccc3sc4ccccc4c3c2)nc2ccccn12		25 µg/mL		
O=C(NCc1ccc(N2CCC(Cc3ccccc3)CC2)cc1)c1c(-c2ccc3sc4ccccc4c3c2)nc2ccccn12		0.78 µg/mL	1.3 µM	34.8%
O=C(NCc1ccc(Oc2ccc(F)cc2)cc1)c1c(-c2ccc3sc4ccccc4c3c2)nc2ccccn12		25 µg/mL		
O=C(NCc1ccc(F)cc1)c1c(-c2ccc3sc4ccccc4c3c2)nc2ccccn12		3.13 µg/mL		25.8%
O=C(NCc1ccc(C(F)(F)F)cc1)c1c(-c2ccc3sc4ccccc4c3c2)nc2ccccn12		12.5 µg/mL		
O=C(NCc1ccccc1)c1c(-c2ccc3sc4ccccc4c3c2)nc2ccccn12		3.13 µg/mL	7.21 µM	34.6%
O=C(NCc1ccc(N2CCN(c3ccccc3F)CC2)cc1)c1c(-c2ccc3sc4ccccc4c3c2)nc2ccccn12		25 µg/mL		
O=C(NCc1ccc(Cl)cc1)c1c(-c2ccc3sc4ccccc4c3c2)nc2ccccn12		25 µg/mL		
CC(C)(C)c1ccc(CNC(=O)c2c(-c3ccc4sc5ccccc5c4c3)nc3ccccn23)cc1		1.56 µg/mL	3.22 µM	18.8%
CCc1nc2ccccn2c1C(=O)NCc1ccc(Oc2ccc(OC(F)(F)F)cc2)cc1	0.013 µM (≈ 0.00592 µg/mL)			
Cc1ccc(CNC(=O)c2c(-c3ccc4sc5ccccc5c4c3)nc3ccccn23)cc1		12.5 µg/mL		
CC(C)(C)c1ccc(Oc2ccc(CNC(=O)c3c(-c4ccc5sc6ccccc6c5c4)nc4ccccn34)cc2)cc1		25 µg/mL		
O=C(NCc1ccc(Oc2ccc(Cl)cc2)cc1)c1c(-c2ccc3sc4ccccc4c3c2)nc2ccccn12		25 µg/mL		
O=C(NCc1ccc(N2CCN(c3ccc(Cl)cc3)CC2)cc1)c1c(-c2ccc3sc4ccccc4c3c2)nc2ccccn12		1.56 µg/mL	2.5 µM	24.4%
O=C(NCc1ccc(Oc2ccccc2)cc1)c1c(-c2ccc3sc4ccccc4c3c2)nc2ccccn12		6.25 µg/mL		38.4%
O=C(NCc1ccc(N2CCOCC2)cc1)c1c(-c2ccc3sc4ccccc4c3c2)nc2ccccn12		25 µg/mL		
O=C(NCc1ccc(OC(F)(F)F)cc1)c1c(-c2ccc3sc4ccccc4c3c2)nc2ccccn12		25 µg/mL		
COc1ccc(CNC(=O)c2c(-c3ccc4sc5ccccc5c4c3)nc3ccccn23)cc1		6.25 µg/mL		37%
O=C(NCc1ccc(Oc2ccc(OC(F)(F)F)cc2)cc1)c1c(-c2ccc3sc4ccccc4c3c2)nc2ccccn12		12.5 µg/mL		
CC[C@@H](CO)NCCN[C@@H](CC)CO [ETHAMBUTOL]		3.13 µg/mL		
NNC(=O)c1ccncc1 [ISONIAZID]		0.1 µg/mL		
NC(=O)c1cnccn1 [PYRAZINAMIDE]		50 µg/mL		
